Laboratory results as given in PMC9785777, “Antidiabetic Potential of Novel 1,3,5-Trisubstituted-2-Thioxoimidazloidin-4-One Analogues: Insights into α-Glucosidase, α-Amylase, and Antioxidant Activities” (Pharmaceuticals, 2022).
In brackets after ≈: the same amount, converted by molar mass. Several values for one entry are separate records, joined by “and”; a condition that tells them apart may be missing. Equal values may be shown once.

Columns and labels:
[1] = MTT cytotoxicity assay against WI-38 cells; type: cell-based, human; conditions: human, WI-38 lung fibroblast cells; for viability at 48 h, 4 µg/mL: 4 µg/mL (log conc. 0.602); for viability at 48 h, 16 µg/mL: 16 µg/mL (log conc. 1.204); for viability at 48 h, 63 µg/mL: 63 µg/mL (log conc. 1.799); for viability at 48 h, 250 µg/mL: 250 µg/mL (log conc. 2.398); for viability at 48 h, 1000 µg/mL: 1000 µg/mL (log conc. 3); for IC50 at 48 h: MTT
Protocol: Based on the promising dual inhibitory activity of this class of compounds, we next evaluated the cytotoxicity of compounds 5a and 7a against human lung fibroblast cell line WI-38 in order to gain insights into the toxicity of this class of compounds utilizing the MTT assay. In this regard, lung fibroblast cells were cultured and treated with compounds 5a and 7a for 48 h at different concentrations (1000, 250, 63, 16, and 4 µg/mL). After the cells were washed, they were treated with MTT solution and the absorption was assessed using an ELISA reader at 570 nm. As a pharmacological reference drug, Celecoxib, a well-known anti-inflammatory agent, was utilized.
The cytotoxicity of compounds 5a and 7a was assessed toward the human lung fibroblast WI-38 cell line (Sigma-Aldrich, St. Louis, MO, USA, product number 90020107) using MTT assay. The MTT test assay was performed in accordance with the previously stated procedure. MTT (3-(4,5-dimethylthiazol-2-yl)-2,5-diphenyl tetrazolium bromide; Sigma catalog no. M2128) was dissolved in PBS at 5 mg/mL and processed to eliminate the insoluble residues. Briefly, cells (10^5 cells/well) were treated for 48 h at 37 °C with compounds 5a and 7a at varied doses (1000, 250, 63, 16, and 4 µg/mL, DMSO stock solutions) in a 5% CO2 atmosphere. In our assessment, celecoxib, an inhibitor of cyclooxygenase 2, was employed as a standard reference drug. Following cell washing, MTT solution (180 µL/well) was applied to the cells and incubated at 37 °C for 4 h with shaking, and the absorbance was measured using an ELISA reader at 570 nm.

[2] = DPPH free radical scavenging assay; conditions: for DPPH free radical scavenging IC50: n = 4
Text: The antioxidant capability of compounds 5a and 7a was estimated utilizing the DPPH (2,2-diphenyl-1- picrylhydrazyl) scavenging assay to assess the free radical scavenger activity. DPPH is a stable free radical substrate with a purple color which upon reaction with an antioxidant compound, converts into 1,1-diphenyl-2-picryl hydrazine, a […] compound. The DPPH assay is widely applied for the investigation of superoxide radical scavenging activity. In this regard, compounds 5a and 7a were incubated at different concentrations (3.12, 6.25, 12.5, 25, 50, 100, and 200 µg/mL) with DPPH substrate and the absorption was assessed by ELISA at 510 nm. In our investigations, Trolox, a water-soluble analogue of vitamin E, was applied as a standard antioxidant reference drug. […] Further, Qamar et al. synthesized and evaluated the antioxidant activity of some novel N3-substituted-2-thiohydantoins.
According to Valko et al., the ELISA approach was used to analyze the free-radical DPPH scavenging activity of compounds (5a and 7a) at different concentrations (3.12, 6.25, 12.5, 25, 50, 100, and 200 µg/mL). The DPPH assay assesses the hydrogen-donating activity and thus provides an evaluation of the antioxidant activity via estimating the DPPH free-radical scavenging activity. The color intensity of the reaction mixture was measured after a purple-colored stable free radical (DPPH) was reduced into the yellow-colored diphenylpicryl hydrazinem. Briefly, 200 µL of different concentrations of compounds 5a and 7a were mixed with 50 µL of DPPH (0.659 mM) solution, and the mixture was incubated at 25 °C for 20 min. The absorbance of the reaction mixture was estimated after incubation at 510 nm. In our investigations, trolox was employed as standard reference drug. A control reaction was performed, and the inhibitory efficiency of DPPH radical-scavenging activity was determined using the equation below: % Inhibition = (A0 − A1)/A0 × 100 (1) where A0 is absorbance of […] and A1 is the absorbance of the compound.

[3] = ROS-generation assay (H2O2 generated with DTT, HRP-phenol red, 610 nm); conditions: 50 µM compound, incubated with DTT; control 90.74±5.54
Text: The […] metabolites and enzymes (such as NADPH oxidase, lipoxygenase, and cytochrome P450) act together to mediate the production of ROS and diminish the counteractive oxidative damage. ROS can cause damage to DNA, lipid, proteins, and nucleic acids and the destruction of cell components leading to cell death. Toward this end, we aimed to investigate whether the mode of action of this class of compounds involved the generation of ROS. ROS-producing compounds upon reaction with a reducing agent in the presence of oxygen afford superoxide O^•−2 radical and hydrogen peroxide (H2O2) which could be quantitively estimated. Thus, compounds 5a and 7a (at 50 µM concentration) were incubated with the reducing agent dithiothreitol (DTT) and the generated H2O2 was subsequently assessed by monitoring the oxidation of phenol red in the presence of horseradish peroxidase (HRP) at the absorbance of 610 nm. We first examined the validity of the assay by examining the activity of a known ROS-producing standard drug. In our study, Celecoxib was utilized as a reference pharmacological ROS-generating drug. […] Next, we evaluated the potency of compounds 5a and 7a to produce ROS at a 50 µM concentration.
According to Nasiri et al., the antioxidant activity of compounds (5a, 7a) and Celecoxib was measured by an evaluation of ROS-generation using ELISA analysis. Three different solutions were prepared for the in vitro assessment of ROS-generation: phenol red, sodium hydroxide solution, and DTT. All reagents were provided by Sigma-Aldrich. A stock solution of DTT (20 mM) was prepared by dissolving […] of DTT in 500 µL of Hank’s Balanced Salt Solution (HBSS), and the obtained solution was preserved at −20 °C. The stock solution was further diluted with HBSS to 0.8 mM for each measurement. The HRP-PR solution was prepared by dissolving 1.8 mg of horseradish peroxidase (HRP) and 3 mg of phenol red (PR) in 10 mL of HBSS. […] After incubation, 1N NaOH was applied, and the absorbance at 610 nm was measured using a plate reader spectrometer. […]

SMILES | viability at 48 h, 4 µg/mL [1] | viability at 48 h, 16 µg/mL [1] | viability at 48 h, 63 µg/mL [1] | viability at 48 h, 250 µg/mL [1] | viability at 48 h, 1000 µg/mL [1] | IC50 at 48 h [1] | %RSA (DPPH radical scavenging activity) ([2]; 3.12 µg/mL) | %RSA (DPPH radical scavenging activity) ([2]; 6.25 µg/mL) | %RSA (DPPH radical scavenging activity) ([2]; 12.5 µg/mL) | %RSA (DPPH radical scavenging activity) ([2]; 25 µg/mL) | %RSA (DPPH radical scavenging activity) ([2]; 50 µg/mL) | %RSA (DPPH radical scavenging activity) ([2]; 100 µg/mL) | %RSA (DPPH radical scavenging activity) ([2]; 200 µg/mL) | DPPH free radical scavenging IC50 [2] | ROS produced (generated H2O2) [3]
COC(=O)CCN1C(=S)N(N=C(C)c2ccccc2O)C(=O)C1=Cc1ccccc1O [Compound 5a, Methyl [5-(2-hydroxybenzylidene)-4-oxo-3-(2-hydroxyphenylethylidene)amino-2-thioxoimidazolidin-1-yl] propionate] | 69% | 59.8% | 52.9% | 44.1% | 34.6% | 88.5 µg/mL (≈ 201 µM) | 12.8385% | 25.9268% | 34.2% | 49.2589% | 65.3256% | 84.0278% | 90.9673% | 51.75 µg/mL | 132.4 pg/mL and 132.4 ± 2.16 pg/mL
COC(=O)CCN1C(=S)N(N=C(C)c2ccccc2O)C(=O)C1=Cc1ccccc1OC(C)=O [Compound 7a, Methyl [5-(2-acetoxybenzylidene)-4-oxo-3-(2-hydroxyphenylethylidene)amino-2-thioxoimidazolidin-1-yl] propionate] | 73% | 60.6% | 53.4% | 44.1% | 36.6% | 109 µg/mL (≈ 227 µM) | 9.7382% | 18.9636% | 30.2839% | 45.4635% | 62.2992% | 81.6087% | 80.732% | 65.5 µg/mL | 191.5 pg/mL and 191.5 ± 3.62 pg/mL
